Test results taken from article PMC11845477, “Exploring the principles behind antibiotics with limited resistance” (Nature Communications, 2025).
Where a SMILES comes first, the peptide text is derived from it. Bridges are numbered along the chain shown (N, C = ends). [ ]: non-standard residue; d: D form. The star is where a group is joined. X1 = NC[C@@H](CC(=O)*)c1cccc(Cl)c1; Dab = NCC[C@H](N)C(=O)O; Dap = NC[C@H](N)C(=O)O

Test system: A. baumannii ATCC 17978 (SEN) and A. baumannii ATCC BAA-1605 (MDR)
Assay: Adaptive laboratory evolution (ALE), relative MIC of evolved lines
Format: cell-based, Acinetobacter baumannii
Method in brief: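 Ten parallel populations per antibiotic–ancestor pair were evolved in MHB at 37 °C, starting near 50% growth-inhibiting drug. Every 72 h they were passaged into 0.5–2.5× increasing concentrations, keeping the highest-drug well with OD600 > 0.2.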

[1] = AB-MDR (Acinetobacter baumannii ATCC BAA 1605), evolved line 2
[2] = AB-SEN (Acinetobacter baumannii ATCC 17978), evolved line 1
[3] = AB-SEN (Acinetobacter baumannii ATCC 17978), evolved line 3
[4] = AB-SEN (Acinetobacter baumannii ATCC 17978), evolved line 5
[5] = AB-SEN (Acinetobacter baumannii ATCC 17978), evolved line 8
[6] = AB-SEN (Acinetobacter baumannii ATCC 17978), evolved line 9

CC(C)C[C@@H]1NC(=O)[C@@H](Cc2ccccc2)NC(=O)[C@H](CCN)NC(=O)[C@@H](NC(=O)[C@H](CN)NC(=O)[C@@H](NC(=O)C[C@H](CN)c2cccc(Cl)c2)[C@@H](C)O)CCNC(=O)[C@H]([C@@H](C)O)NC(=O)[C@H](CCN)NC(=O)[C@H](CCN)NC1=O [SPR206] (X1-T[Dap][Dab][Dab][dF]L[Dab][Dab]T; lactam 3-C (inferred); N-terminus assumed)
1024: Relative MIC (AB-MDR (ATCC BAA 1605), evolved line 10, evolved vs ancestor) | Relative MIC (AB-SEN (ATCC 17978), evolved line 10, evolved vs ancestor) | Relative MIC (AB-SEN (Acinetobacter baumannii ATCC 17978), evolved line 10) | Relative MIC (ALE, A. baumannii ATCC 17978 (AB-SEN), evolved line 10) | Relative MIC (ALE, A. baumannii ATCC BAA 1605 (AB-MDR), evolved line 10) | Relative MIC (Acinetobacter baumannii ATCC 17978 (AB-SEN), evolved line 10) | Relative MIC (Acinetobacter baumannii ATCC BAA 1605 (AB-MDR), evolved line 10)
512: Relative MIC (AB-MDR (ATCC BAA 1605), evolved line 3, evolved vs ancestor) | Relative MIC (AB-SEN (A. baumannii ATCC 17978), evolved line 3 vs ancestor) | Relative MIC [3] | Relative MIC (ALE, A. baumannii ATCC 17978 (AB-SEN), evolved line 3) | Relative MIC (ALE, A. baumannii ATCC BAA 1605 (AB-MDR), evolved line 3) | Relative MIC (Acinetobacter baumannii ATCC 17978 (AB-SEN), evolved line 3) | Relative MIC (Acinetobacter baumannii ATCC BAA 1605 (AB-MDR), evolved line 3)
3.913 log10: Relative MIC (log10) [1] | Relative MIC (log10) (AB-MDR (Acinetobacter baumannii ATCC BAA 1605), evolved line 5) | Relative MIC (log10) (AB-MDR (Acinetobacter baumannii ATCC BAA 1605), evolved line 6) | Relative MIC (log10) (AB-MDR (Acinetobacter baumannii ATCC BAA 1605), evolved line 7) | Relative MIC (log10) (AB-MDR (Acinetobacter baumannii ATCC BAA 1605), evolved line 9) | Relative MIC (log10) [4] | Relative MIC (log10) [6]
512 µg/mL: MIC of evolved line (AB-MDR ATCC BAA 1605, evolved line 8) | MIC of evolved line (AB-SEN (A. baumannii ATCC 17978), evolved line 8 of the given antibiotic)
2.709 log10: Relative MIC (log10) [3]
64 µg/mL: MIC of evolved line (AB-MDR ATCC BAA 1605, evolved line 3) | MIC of evolved line (AB-SEN (A. baumannii ATCC 17978), evolved line 3 of the given antibiotic)
1020 µg/mL: MIC of evolved line (AB-MDR ATCC BAA 1605, evolved line 2) | MIC of evolved line (AB-MDR ATCC BAA 1605, evolved line 5) | MIC of evolved line (AB-MDR ATCC BAA 1605, evolved line 6) | MIC of evolved line (AB-MDR ATCC BAA 1605, evolved line 7) | MIC of evolved line (AB-MDR ATCC BAA 1605, evolved line 9) | MIC of evolved line (AB-SEN (A. baumannii ATCC 17978), evolved line 2 of the given antibiotic) | MIC of evolved line (AB-SEN (A. baumannii ATCC 17978), evolved line 5 of the given antibiotic) | MIC of evolved line (AB-SEN (A. baumannii ATCC 17978), evolved line 6 of the given antibiotic) | MIC of evolved line (AB-SEN (A. baumannii ATCC 17978), evolved line 7 of the given antibiotic) | MIC of evolved line (AB-SEN (A. baumannii ATCC 17978), evolved line 9 of the given antibiotic)
3.311 log10: Relative MIC (log10) [2]
8192: Relative MIC (AB-MDR (ATCC BAA 1605), evolved line 2, evolved vs ancestor) | Relative MIC (AB-MDR (ATCC BAA 1605), evolved line 5, evolved vs ancestor) | Relative MIC (AB-MDR (ATCC BAA 1605), evolved line 6, evolved vs ancestor) | Relative MIC (AB-MDR (ATCC BAA 1605), evolved line 7, evolved vs ancestor) | Relative MIC (AB-MDR (ATCC BAA 1605), evolved line 9, evolved vs ancestor) | Relative MIC [1] | Relative MIC (AB-SEN (A. baumannii ATCC 17978), evolved line 2 vs ancestor) | Relative MIC (AB-SEN (A. baumannii ATCC 17978), evolved line 5 vs ancestor) | Relative MIC (AB-SEN (A. baumannii ATCC 17978), evolved line 6 vs ancestor) | Relative MIC (AB-SEN (A. baumannii ATCC 17978), evolved line 7 vs ancestor) | Relative MIC (AB-SEN (A. baumannii ATCC 17978), evolved line 9 vs ancestor) | Relative MIC (AB-SEN (Acinetobacter baumannii ATCC 17978), evolved line 2) | Relative MIC [4] | Relative MIC (AB-SEN (Acinetobacter baumannii ATCC 17978), evolved line 6) | Relative MIC [6] | Relative MIC (AB-SEN, Acinetobacter baumannii ATCC 17978, evolved line 7) | Relative MIC (ALE, A. baumannii ATCC 17978 (AB-SEN), evolved line 2) | Relative MIC (ALE, A. baumannii ATCC 17978 (AB-SEN), evolved line 5) | Relative MIC (ALE, A. baumannii ATCC 17978 (AB-SEN), evolved line 6) | Relative MIC (ALE, A. baumannii ATCC 17978 (AB-SEN), evolved line 7) | Relative MIC (ALE, A. baumannii ATCC 17978 (AB-SEN), evolved line 9) | Relative MIC (ALE, A. baumannii ATCC BAA 1605 (AB-MDR), evolved line 2) | Relative MIC (ALE, A. baumannii ATCC BAA 1605 (AB-MDR), evolved line 5) | Relative MIC (ALE, A. baumannii ATCC BAA 1605 (AB-MDR), evolved line 6) | Relative MIC (ALE, A. baumannii ATCC BAA 1605 (AB-MDR), evolved line 7) | Relative MIC (ALE, A. baumannii ATCC BAA 1605 (AB-MDR), evolved line 9) | Relative MIC (Acinetobacter baumannii ATCC 17978 (AB-SEN), evolved line 2) | Relative MIC (Acinetobacter baumannii ATCC 17978 (AB-SEN), evolved line 5) | Relative MIC (Acinetobacter baumannii ATCC 17978 (AB-SEN), evolved line 6) | Relative MIC (Acinetobacter baumannii ATCC 17978 (AB-SEN), evolved line 7) | Relative MIC (Acinetobacter baumannii ATCC 17978 (AB-SEN), evolved line 9) | Relative MIC (Acinetobacter baumannii ATCC BAA 1605 (AB-MDR), evolved line 2) | Relative MIC (Acinetobacter baumannii ATCC BAA 1605 (AB-MDR), evolved line 5) | Relative MIC (Acinetobacter baumannii ATCC BAA 1605 (AB-MDR), evolved line 6) | Relative MIC (Acinetobacter baumannii ATCC BAA 1605 (AB-MDR), evolved line 7) | Relative MIC (Acinetobacter baumannii ATCC BAA 1605 (AB-MDR), evolved line 9)
4096: Relative MIC (AB-MDR (ATCC BAA 1605), evolved line 8, evolved vs ancestor) | Relative MIC (AB-SEN (A. baumannii ATCC 17978), evolved line 8 vs ancestor) | Relative MIC [5] | Relative MIC (ALE, A. baumannii ATCC 17978 (AB-SEN), evolved line 8) | Relative MIC (ALE, A. baumannii ATCC BAA 1605 (AB-MDR), evolved line 8) | Relative MIC (Acinetobacter baumannii ATCC 17978 (AB-SEN), evolved line 8) | Relative MIC (Acinetobacter baumannii ATCC BAA 1605 (AB-MDR), evolved line 8)
128 µg/mL: MIC of evolved line (AB-MDR ATCC BAA 1605, evolved line 10) | MIC of evolved line (AB-SEN (ATCC 17978), evolved line 10)
2048: Relative MIC (AB-MDR (ATCC BAA 1605), evolved line 4, evolved vs ancestor) | Relative MIC (AB-MDR (Acinetobacter baumannii ATCC BAA 1605), evolved line 1) | Relative MIC (AB-SEN (A. baumannii ATCC 17978), evolved line 1 vs ancestor) | Relative MIC (AB-SEN (A. baumannii ATCC 17978), evolved line 4 vs ancestor) | Relative MIC [2] | Relative MIC (AB-SEN (Acinetobacter baumannii ATCC 17978), evolved line 4) | Relative MIC (ALE, A. baumannii ATCC 17978 (AB-SEN), evolved line 1) | Relative MIC (ALE, A. baumannii ATCC 17978 (AB-SEN), evolved line 4) | Relative MIC (ALE, A. baumannii ATCC BAA 1605 (AB-MDR), evolved line 1) | Relative MIC (ALE, A. baumannii ATCC BAA 1605 (AB-MDR), evolved line 4) | Relative MIC (Acinetobacter baumannii ATCC 17978 (AB-SEN), evolved line 1) | Relative MIC (Acinetobacter baumannii ATCC 17978 (AB-SEN), evolved line 4) | Relative MIC (Acinetobacter baumannii ATCC BAA 1605 (AB-MDR), evolved line 4) | Relative MIC (Acinetobacter baumannii ATCC BAA 1605 (AB-MDR), evolved line 1)
3.612 log10: Relative MIC (log10) [5]
256 µg/mL: MIC of evolved line (AB-MDR ATCC BAA 1605, evolved line 1) | MIC of evolved line (AB-MDR ATCC BAA 1605, evolved line 4) | MIC of evolved line (AB-SEN (A. baumannii ATCC 17978), evolved line 1 of the given antibiotic) | MIC of evolved line (AB-SEN (A. baumannii ATCC 17978), evolved line 4 of the given antibiotic)
